{"source": "patent US20240277890A1", "about": "“ANTIMICROBIAL ARTICLES COMPRISING POLYURETHANE” (Amicoat AS, priority 2021, published 2024)", "key": {"[1]": {"tested_on": "Staphylococcus aureus - methicillin-resistant clinical isolate"}, "[2]": {"tested_on": "Staphylococcus aureus ATCC 29213 - antibiotic-susceptible control strain", "settings": "ATCC 29213"}, "[3]": {"tested_on": "Staphylococcus haemolyticus - antibiotic susceptible clinical isolate"}, "[4]": {"tested_on": "Cryptococcus neoformans - G.R. Micro collection"}, "[5]": {"tested_on": "Staphylococcus aureus ATCC 25923 - antibiotic-susceptible control strain"}, "[6]": {"tested_on": "Candida (Issatchenkia) krusei ATCC6258 - reference strain"}, "[7]": {"tested_on": "Trichophyton mentagrophytes - G.R. Micro collection"}, "[8]": {"tested_on": "Enterococcus gallinarum vancomycin-resistant (VanC) clinical isolate"}, "[9]": {"tested_on": "Corynebacterium jeikeium - multi-drug resistant clinical isolate"}, "[10]": {"tested_on": "Staphylococcus aureus, strain ATCC 25923", "settings": "ATCC 25923"}, "[11]": {"tested_on": "Staphylococcus aureus ATCC 43300 - methicillin-resistant control strain"}, "[12]": {"tested_on": "EMRSA3 Staphylococcus aureus (MRSA) - SSCmec type 1", "settings": "EMRSA3 - SSCmec type 1"}, "[13]": {"tested_on": "Methicillin resistant Staphylococcus aureus (MRSA) strain ATCC 33591", "settings": "ATCC 33591"}, "[14]": {"tested_on": "Streptococcus agalactiae - antibiotic-susceptible clinical isolate"}, "[15]": {"tested_on": "Staphylococcus aureus FDA486", "experiment": "Murine skin infection model, one day topical treatment", "format": "in vivo, mice", "settings": "cream or gel containing 2% (w/w) of compound; three topical treatments at three hourly intervals; compared to placebo", "protocol": "(§1) The skin of mice was infected with Staphylococcus aureus or Streptococcus pyogenes and subsequently given a total of three treatments at three hourly intervals. Three hours after the last treatment, skin biopsies were collected and the number of colony forming units (CFUs) present in the skin sample was determined. Results are shown in FIGS. 3, 4 and 5 expressed as the number of colony forming units per mouse."}, "[16]": {"tested_on": "Streptococcus pyogenes CS301", "experiment": "Murine skin infection model, one day topical treatment", "format": "in vivo, mice", "protocol": "as §1"}, "[17]": {"tested_on": "Staphylococcus epidermidis antibiotic susceptible clinical isolate"}, "[18]": {"tested_on": "Staphylococcus saprophyticus - antibiotic susceptible clinical isolate"}, "[19]": {"tested_on": "Methicillin resistant Staphylococcus epidermidis (MRSE) strain ATCC 27626", "settings": "ATCC 27626"}, "[20]": {"tested_on": "HT2001254 Staphylococcus aureus (MRSA) - PVL positive", "settings": "HT2001254 S. aureus (MRSA) PVL positive"}, "[21]": {"tested_on": "Streptococcus bovis - macrolide-resistant clinical isolate"}, "[22]": {"tested_on": "EMRSA15 Staphylococcus aureus (MRSA) - SSCmec type 4", "settings": "EMRSA15 - SSCmec type 4"}, "[23]": {"tested_on": "Moraxella catarrhalis - reduced fluoroquinolone susceptibility clinical isolate"}, "[24]": {"tested_on": "Corynebacterium jeikeium - antibiotic-susceptible clinical isolate"}, "[25]": {"tested_on": "Candida tropicalis ATCC750 - reference strain"}, "[26]": {"tested_on": "Staphylococcus epidermidis methicillin-resistant clinical isolate"}, "[27]": {"tested_on": "Pseudomonas aeruginosa - multi-drug resistant clinical isolate"}, "[28]": {"tested_on": "Moraxella catarrhalis - β-lactamase positive clinical isolate"}}}
{"smiles": "CC(C)NC(=O)[C@H](CCCNC(=N)N)NC(=O)[C@H](Cc1c(C(C)(C)C)[nH]c2c(C(C)(C)C)cc(C(C)(C)C)cc12)NC(=O)[C@@H](N)CCCNC(=N)N", "note": "[Compound 7]", "values": [{"measurement": "C. albicans (MIC)", "setting": "C. albicans", "result": 25, "unit": "mg/L"}, {"measurement": "MIC", "setting": "[1]", "result": 8, "unit": "mg/L"}, {"measurement": "MIC", "setting": "[2]", "result": 8, "unit": "mg/L"}, {"measurement": "MIC", "setting": "[3]", "result": 4, "unit": "mg/L"}, {"measurement": "MIC", "setting": "[4]", "result": 8, "unit": "mg/L"}, {"measurement": "MIC", "setting": "[5]", "result": 8, "unit": "mg/L"}, {"measurement": "MIC", "setting": "[6]", "result": 8, "unit": "mg/L"}, {"measurement": "MIC", "setting": "[7]", "result": 8, "unit": "mg/L"}, {"measurement": "MIC", "setting": "[8]", "result": 8, "unit": "mg/L"}, {"measurement": "MIC", "setting": "[9]", "result": 8, "unit": "mg/L"}, {"measurement": "S. aureus (MIC)", "setting": "[10]", "result": "<2", "unit": "mg/L"}, {"measurement": "MIC", "setting": "[11]", "result": 8, "unit": "mg/L"}, {"measurement": "MIC", "setting": "[12]", "result": 8, "unit": "mg/L"}, {"measurement": "MRSA (MIC)", "setting": "[13]", "result": "<2", "unit": "mg/L"}, {"measurement": "MIC", "setting": "[14]", "result": 8, "unit": "mg/L"}, {"measurement": "number of CFUs in skin biopsy", "setting": "[15]", "result": "the number of CFUs was reduced"}, {"measurement": "number of CFUs in skin biopsy", "setting": "[16]; 1% or 2% gel, three topical treatments at three hourly intervals, compared to placebo gel and bactroban", "result": "more effective at reducing the number of CFUs from a Streptococcus pyogenes CS 301 infection than the placebo gel or the bactroban"}, {"measurement": "number of CFUs in skin biopsy, 2% gel versus 1% gel", "setting": "[16]; gel containing 2% compared to gel containing 1%", "result": "more effective than the gel containing only 1% of compound 7"}, {"measurement": "MIC", "setting": "[17]", "result": 4, "unit": "mg/L"}, {"measurement": "MIC", "setting": "[18]", "result": 2, "unit": "mg/L"}, {"measurement": "MRSE (MIC)", "setting": "[19]", "result": "<2", "unit": "mg/L"}, {"measurement": "MIC", "setting": "[20]", "result": 8, "unit": "mg/L"}, {"measurement": "MIC", "setting": "[21]", "result": 8, "unit": "mg/L"}, {"measurement": "MIC", "setting": "[22]", "result": 8, "unit": "mg/L"}, {"measurement": "P. aeruginosa (MIC)", "setting": "P. aeruginosa", "result": 7, "unit": "mg/L"}, {"measurement": "MIC", "setting": "[23]", "result": 8, "unit": "mg/L"}, {"measurement": "MIC", "setting": "[24]", "result": 8, "unit": "mg/L"}, {"measurement": "S. pyogenes (MIC)", "setting": "S. pyogenes", "result": "<2", "unit": "mg/L"}, {"measurement": "MIC", "setting": "[25]", "result": 4, "unit": "mg/L"}, {"measurement": "MIC", "setting": "[26]", "result": 4, "unit": "mg/L"}, {"measurement": "MIC", "setting": "[27]", "result": 8, "unit": "mg/L"}, {"measurement": "MIC", "setting": "[28]", "result": 4, "unit": "mg/L"}, {"measurement": "E. coli (MIC)", "setting": "E. coli", "result": 7, "unit": "mg/L"}]}
